Data: patent publication US12263169B2, “Methods of treating neuroepithelial tumors using selective glucocorticoid receptor modulators” (Corcept Therapeutics, Inc., priority 2017, dated 2025)

Experiments:
[1] = tested on: GL261; assay: Cell growth inhibition (Alamar Blue cell viability assay); format: cell-based; conditions: Mus musculus, GL261 standard GBM line, 72 hours treatment, triplicate
Description: (§1) The effect of GRMs on the growth in culture of human and mouse glioblastoma cells was examined. The GRMs mifepristone and CORT125134 inhibited growth in culture of each of five different glioblastoma cell lines. The highest drug concentration tested was 50 μM. The cell lines used were the Standard Serum Human glioblastoma (GBM) Cell lines: U251, GL261, U87, and the patient-derived neurosphere cell lines GBM8 and GBM4. Cells were plated at cell numbers of 2000 cells/well, in a 96-well format; the experiments were done in triplicate. Cell growth inhibition by the applied drugs was assayed. Cell growth inhibition was quantified by the Alamar Blue method using a commercial assay kit. Cell growth inhibition was determined (“read out”) after 72 hours of treatment. […] Cell Cultures: The human glioblastoma cell lines (obtained from the American Type Culture Collection (ATCC), Manassas VA, USA) tested were U251 and U87 (human), and GL261 (mouse). These were grown as an adherent monolayer cultured in DMEM supplemented with 10% fetal bovine serum (FBS) (Seradigm, a subsidiary of VWR, Radnor PA, USA) and 1% glutamine pen-strep (Omega Scientific, Tarzana CA, USA). GBM8 (passage 12) and GBM4 are patient derived glioma stem cell lines obtained and cultured as neurospheres (spheroids) as described by Galli et al., “Isolation and characterization of tumorigenic, stem-like neural precursors from human glioblastoma” Cancer Res 2004, 64 (19), 7011-21 and Lee et al., “Tumor stem cells derived from glioblastomas cultured in bFGF and EGF more closely mirror the phenotype and genotype of primary tumors than do serum-cultured cell lines” Cancer Cell 2006, 9 (5), 391-403. Initial GBM surgical samples were dissociated in stem cell isolation medium containing human recombinant EGF ([…]), human bFGF ([…]) and heparin (2 μg/ml), washed, filtered through a 30 μm mesh and plated onto ultra-low adherence flasks at a concentration of 5×10^5 to 1.5×10^6 viable cells/ml. Sphere cultures were passaged by dissociation, washing and resuspension in neural stem cell culture medium (NeuroCult™ NS-A Proliferation kit #05751, Stemcell Technologies, Vancouver, BC, CA), according to the manufacturer's instructions. Cell Viability Assay: Cells were seeded into 96-well plates at a density of 2000 cells per well. Compounds were added 24 hours after the seeding of cells. All compounds were diluted in 1% FBS/DMEM. The control was treated with media alone. After 3 days incubation (37° C./5% CO2) Alamar Blue (#BUF012B, AbDSerotec, Kidlington, UK) was added according to the manufacturer's protocol, directly to the medium and placed back in the tissue culture incubator (37° C. 5% CO2). After 3-18 hours fluorescent signal was read at 544ex/590em (SpectraMax i3x plate reader, Molecular Devices, San Jose CA, USA) to determine the number of viable cells. The IC50 values were calculated using commercial software (Prism 5 Software, GraphPad, La Jolla CA, USA). After 24 hours post incubation, cells were treated with drugs at various concentrations for 72 hours. Cell viability was measured after 72 hours by Alamar Blue and results reported as triplicate experiment. The following Table presents the IC50 values as determined in these experiments.

[2] = tested on: U251; assay: as above; format: cell-based; conditions: Homo sapiens, U-251, U251 standard GBM line, 72 hours treatment, triplicate
Description: as §1

[3] = tested on: GBM4; assay: as above; format: cell-based; conditions: Homo sapiens, GBM4 patient-derived neurosphere line, 72 hours treatment, triplicate
Description: as §1

[4] = tested on: GBM8; assay: as above; format: cell-based; conditions: Homo sapiens, GBM8 patient-derived neurosphere line, 72 hours treatment, triplicate
Description: as §1

[5] = tested on: U87; assay: as above; format: cell-based; conditions: Homo sapiens, U-87 MG, U87 standard GBM line, 72 hours treatment, triplicate
Description: as §1

[6] = tested on: glioblastoma cell lines U251, GL261, U87, GBM8 and GBM4; assay: Cell growth inhibition, summary over five glioblastoma cell lines; format: cell-based, human and mouse; conditions: range over five glioblastoma cell lines, 72 hours treatment, Alamar Blue; read-out: half-maximal inhibition concentration (IC50) values, range over the cell lines
Description: The effect of GRMs on the growth in culture of human and mouse glioblastoma cells was examined. The GRMs mifepristone and CORT125134 inhibited growth in culture of each of five different glioblastoma cell lines. The highest drug concentration tested was 50 μM. The cell lines used were the Standard Serum Human glioblastoma (GBM) Cell lines: U251, GL261, U87, and the patient-derived neurosphere cell lines GBM8 and GBM4. Cells were plated at cell numbers of 2000 cells/well, in a 96-well format; the experiments were done in triplicate. Cell growth inhibition by the applied drugs was assayed. Cell growth inhibition was quantified by the Alamar Blue method using a commercial assay kit. Cell growth inhibition was determined (“read out”) after 72 hours of treatment. […] Cell Cultures: The human glioblastoma cell lines (obtained from the American Type Culture Collection (ATCC), Manassas VA, USA) tested were U251 and U87 (human), and GL261 (mouse). […] After 3-18 hours fluorescent signal was read at 544ex/590em (SpectraMax i3x plate reader, Molecular Devices, San Jose CA, USA) to determine the number of viable cells. The IC50 values were calculated using commercial software (Prism 5 Software, GraphPad, La Jolla CA, USA). […] Cell viability was measured after 72 hours by Alamar Blue and results reported as triplicate experiment. The following Table presents the IC50 values as determined in these experiments.

[7] = tested on: meningioma; assay: Treating a meningioma patient with SGRM, tumor load monitored by enhanced MRI; format: in vivo, human; conditions: 200 mg once a day for eight weeks
Description: A patient complains of tinnitus and right-sided hearing loss for 6 months. […] They are treated with CORT125134 at a dose of 200 mg once a day for eight weeks. Their tumor load is monitored using enhanced MRI before, during and after the treatment.
A patient complains of tinnitus and right-sided hearing loss for 6 months. […] They are treated with CORT125281 at a dose of 200 mg once a day for eight weeks. Their tumor load is monitored using enhanced MRI before, during and after the treatment.

IC50 [2] [µM] | IC50 [5] [µM] | IC50 [6] [µM] | SMILES | IC50 [1] [µM] | IC50 [3] [µM] | IC50 [4] [µM] | reduction of tumor size as compared to baseline at the end of the treatment period [7]
18.4 | 18.4 | 16 to 24 | CC#C[C@]1(O)CC[C@H]2[C@@H]3CCC4=CC(=O)CCC4=C3[C@@H](c3ccc(N(C)C)cc3)C[C@@]21C [Mifepristone, 17-β-hydrox-11-β-(4-dimethyl-aminophenyl)17-α-(1-propynyl)estra-4,9-dien-3-one, reference compound] | 15.7 | 24.1 | 24 | –
12.5 | 5.42 | 5 to 29 | Cn1cc(S(=O)(=O)N2CCC3=Cc4c(cnn4-c4ccc(F)cc4)C[C@]3(C(=O)c3cc(C(F)(F)F)ccn3)C2)cn1 [CORT125134, (R)-(1-(4-fluorophenyl)-6-((1-methyl-1H-pyrazol-4-yl)sulfonyl)-4,4a,5,6,7,8-hexahydro-1H-pyrazolo[3,4-g]isoquinolin-4a-yl)(4-(trifluoromethyl)pyridin-2-yl)methanone] | 5.86 | 20.7 | 29.1 | more than 50%
– | – | – | Cn1ncc(S(=O)(=O)N2CC[C@H]3Cc4c(cnn4-c4ccc(F)cc4)C[C@]3(C(=O)c3cc(C(F)(F)F)ccn3)C2)n1 [CORT125281, ((4aR,8aS)-1-(4-fluorophenyl)-6-((2-methyl-2H-1,2,3-triazol-4-yl)sulfonyl)-4,4a,5,6,7,8,8a,9-octahydro-1H-pyrazolo[3,4-g]isoquinolin-4a-yl)(4-(trifluoromethyl)pyridin-2-yl)methanone] | – | – | – | more than 50%
